In paper PMC8764033, “Single-molecule analysis of specificity and multivalency in binding of short linear substrate motifs to the APC/C” (Nature Communications, 2022):

Biological target: T1, hCdc20^WD40 (Homo sapiens, UniProt Q12834)
T1 construct: human Cdc20 (aa 162–484; pNH188); made in house; host or cells: Sf9 insect cells (baculovirus)
Test: Fluorescence anisotropy, 10 nM Cy5-labeled peptide, hCdc20^WD40
Assay type: binding

T1 sequence (Q12834 162-484): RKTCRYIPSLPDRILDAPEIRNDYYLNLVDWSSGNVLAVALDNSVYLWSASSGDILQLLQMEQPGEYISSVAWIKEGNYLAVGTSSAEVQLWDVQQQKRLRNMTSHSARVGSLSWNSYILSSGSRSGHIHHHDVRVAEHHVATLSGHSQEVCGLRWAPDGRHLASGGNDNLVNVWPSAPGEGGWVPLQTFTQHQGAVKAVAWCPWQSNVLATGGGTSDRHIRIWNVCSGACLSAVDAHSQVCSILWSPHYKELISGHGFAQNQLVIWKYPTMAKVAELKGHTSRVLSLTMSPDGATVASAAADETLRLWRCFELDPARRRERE

Row | Substance | binding to human Cdc20 (in words)
1 | LIYVDKENGEPGTR-K(Cy5) [hSecurin KEN, Cy5-labeled KEN box peptide of human securin/Pttg1] | not Cdc20
2 | LPKATRKALGTVNRATEKSVK-K(Cy5) [AurKB D box, Cy5-labeled D box peptide of Aurora B kinase] | not Cdc20
